Measurements taken from patent US12419296B2, “Remote detection of pre-determined termite feeding activities in soil” (University of Florida Research Foundation, Inc., priority 2019, dated 2025).

Columns and labels:
rat [1] = conditions: cited from earlier work
rat [2] = assay: rat oral LD50 (acute toxicity); type: in vivo; conditions: relative to soil termiticide fipronil

SMILES | rat oral LD50 (rat [1]) | fold less toxic than fipronil (rat oral LD50) (rat [2]) [fold]
N#Cc1nn(-c2c(Cl)cc(C(F)(F)F)cc2Cl)c(N)c1[S+]([O-])C(F)(F)F (stereo not drawn) [fipronil] | 97 mg/kg | 
O=C(NC(=O)c1c(F)cccc1F)Nc1cc(Cl)c(OC(F)(F)C(F)C(F)(F)F)c(Cl)c1F (stereo not drawn) [noviflumuron] | > 3,160 mg/kg | 32
